Data reported in PMC4234217 (ChemistryOpen, 2014).

How the values were obtained:
human NTS2 [1] = target: T1, human NTS2 (Homo sapiens, UniProt O95665); experiment: Radioligand binding at human NTS2 with [3H]NT; conditions: SEM
human NTS2 [2] = target: T1, human NTS2; conditions: replacement of Tyr11 by alanine; ref [7]; cited from earlier work
human NTS1 = human NTS1 (Homo sapiens, UniProt P30989); conditions: replacement of Tyr11 by alanine; ref [7]; cited from earlier work
Chain of human NTS1 (P30989 whole entry): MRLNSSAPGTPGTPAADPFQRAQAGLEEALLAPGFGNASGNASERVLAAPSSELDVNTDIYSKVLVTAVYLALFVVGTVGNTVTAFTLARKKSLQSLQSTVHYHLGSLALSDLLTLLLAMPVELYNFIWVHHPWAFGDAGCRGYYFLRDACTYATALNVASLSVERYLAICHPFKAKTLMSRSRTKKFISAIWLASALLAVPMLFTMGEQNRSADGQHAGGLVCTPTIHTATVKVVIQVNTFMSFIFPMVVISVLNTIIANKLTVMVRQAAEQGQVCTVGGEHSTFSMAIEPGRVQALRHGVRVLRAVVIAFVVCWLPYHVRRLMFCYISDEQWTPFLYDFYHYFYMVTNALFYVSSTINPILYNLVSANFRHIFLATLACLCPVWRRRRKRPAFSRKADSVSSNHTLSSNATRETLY

T1 sequence (O95665 whole entry): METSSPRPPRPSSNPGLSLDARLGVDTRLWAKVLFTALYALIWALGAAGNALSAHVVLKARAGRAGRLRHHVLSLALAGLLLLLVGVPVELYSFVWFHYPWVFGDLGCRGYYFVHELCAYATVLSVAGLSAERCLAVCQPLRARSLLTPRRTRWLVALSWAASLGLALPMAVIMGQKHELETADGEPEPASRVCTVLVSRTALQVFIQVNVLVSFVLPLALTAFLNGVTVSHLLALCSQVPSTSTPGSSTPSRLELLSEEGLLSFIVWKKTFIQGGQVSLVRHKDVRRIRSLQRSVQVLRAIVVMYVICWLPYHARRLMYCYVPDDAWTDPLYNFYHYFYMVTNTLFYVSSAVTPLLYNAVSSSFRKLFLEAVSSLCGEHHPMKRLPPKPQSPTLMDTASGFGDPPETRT

| Compound | Ki (human NTS2 [1]) [nM] | decrease of affinity towards NTS2 compared to NT(8–13) (human NTS2 [2]) [fold] | reduction of ligand affinity at NTS1 compared to NT(8–13) (human NTS1) [fold] |
| --- | --- | --- | --- |
| CC[C@H](C)[C@H](NC(=O)CN(CCc1ccn2nccc2c1)C(=O)[C@@H]1CCCN1C(=O)[C@H](CCCNC(=N)N)NC(=O)[C@@H](N)CCCNC(=N)N)C(=O)N[C@@H](CC(C)C)C(=O)O [compound 3, [^11N-{5-(2-Aminoethyl)pyrazolo[1,5-a]pyridine}-Gly]NT(8–13)] | 520 ± 170 |  |  |
| [^11Ala]NT(8–13) |  | 70 | 5400 |
